As a reminder, the IC50 is the concentration needed to halve the response being measured. A lower IC50 goes with higher potency.

These results are taken from US20140120083A1, “TREATMENT OF CANCERS USING PI3 KINASE ISOFORM MODULATORS” (INFINITY PHARMACEUTICALS, INC., priority 2012, published 2014).

Structures are written as SMILES.

Common to all, as to assay type: biochemical
In one assay the target is T1, PI3K γ (Homo sapiens, UniProt P48736).
T1 construct: purchased Sigma
In words: In vitro IC50, PI3K γ. The source says: (§1) An exemplary system is PI 3-Kinase (human) HTRF™ Assay from Upstate.

Another assay deals with PI3K δ (Homo sapiens, UniProt O00329). In words: In vitro IC50, PI3K δ. Further details: purchased Upstate.
PI3K δ, sequence (O00329 whole entry): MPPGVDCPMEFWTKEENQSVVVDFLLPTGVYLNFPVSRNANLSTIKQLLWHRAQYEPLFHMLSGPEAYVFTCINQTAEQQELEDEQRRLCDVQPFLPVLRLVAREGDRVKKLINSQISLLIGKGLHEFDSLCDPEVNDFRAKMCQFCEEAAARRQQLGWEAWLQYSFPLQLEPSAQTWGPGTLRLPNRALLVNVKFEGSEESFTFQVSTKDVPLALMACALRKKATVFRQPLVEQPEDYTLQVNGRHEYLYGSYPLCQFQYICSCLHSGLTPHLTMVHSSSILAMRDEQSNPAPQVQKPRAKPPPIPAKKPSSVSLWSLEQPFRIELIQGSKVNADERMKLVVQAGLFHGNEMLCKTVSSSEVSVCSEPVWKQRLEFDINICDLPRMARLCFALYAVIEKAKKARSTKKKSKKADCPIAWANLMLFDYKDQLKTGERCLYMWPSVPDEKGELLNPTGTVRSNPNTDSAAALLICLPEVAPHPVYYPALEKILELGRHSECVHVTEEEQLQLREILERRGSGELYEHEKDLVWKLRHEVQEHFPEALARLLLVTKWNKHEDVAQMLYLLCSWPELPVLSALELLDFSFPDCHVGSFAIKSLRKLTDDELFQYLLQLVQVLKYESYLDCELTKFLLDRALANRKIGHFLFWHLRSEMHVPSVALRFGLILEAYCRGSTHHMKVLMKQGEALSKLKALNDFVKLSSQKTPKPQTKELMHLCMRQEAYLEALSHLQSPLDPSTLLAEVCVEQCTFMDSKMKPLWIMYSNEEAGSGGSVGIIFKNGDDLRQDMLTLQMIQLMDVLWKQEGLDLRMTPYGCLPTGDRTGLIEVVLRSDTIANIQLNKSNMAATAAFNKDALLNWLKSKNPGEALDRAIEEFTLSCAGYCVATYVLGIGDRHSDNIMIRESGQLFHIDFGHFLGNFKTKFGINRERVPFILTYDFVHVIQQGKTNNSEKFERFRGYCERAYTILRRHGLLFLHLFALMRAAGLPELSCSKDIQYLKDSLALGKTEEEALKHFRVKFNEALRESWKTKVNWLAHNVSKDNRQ
PI3K δ, sequence (P27986 whole entry partner): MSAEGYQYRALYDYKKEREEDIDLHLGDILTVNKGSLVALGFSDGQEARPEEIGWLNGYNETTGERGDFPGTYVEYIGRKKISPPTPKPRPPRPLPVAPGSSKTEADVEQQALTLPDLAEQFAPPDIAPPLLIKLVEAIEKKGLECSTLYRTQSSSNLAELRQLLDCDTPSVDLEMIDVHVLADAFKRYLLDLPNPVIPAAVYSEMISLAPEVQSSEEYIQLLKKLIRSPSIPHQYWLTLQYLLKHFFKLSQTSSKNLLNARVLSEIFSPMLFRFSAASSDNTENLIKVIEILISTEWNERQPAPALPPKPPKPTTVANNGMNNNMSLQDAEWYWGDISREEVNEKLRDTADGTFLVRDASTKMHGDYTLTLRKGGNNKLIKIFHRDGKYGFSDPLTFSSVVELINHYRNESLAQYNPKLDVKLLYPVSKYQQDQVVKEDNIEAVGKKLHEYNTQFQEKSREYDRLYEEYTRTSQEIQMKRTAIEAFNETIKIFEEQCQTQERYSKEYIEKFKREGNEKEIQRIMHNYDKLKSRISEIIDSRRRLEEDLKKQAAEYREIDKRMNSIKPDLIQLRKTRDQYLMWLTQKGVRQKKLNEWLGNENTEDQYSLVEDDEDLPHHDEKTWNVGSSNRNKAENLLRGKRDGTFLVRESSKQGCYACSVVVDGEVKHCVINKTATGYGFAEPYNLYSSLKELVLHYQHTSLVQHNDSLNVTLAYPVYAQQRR
Text: as §1

The target of the next assay is T2, PI3K α (Homo sapiens, UniProt P42336).
T2 construct: purchased Upstate
T2 sequence (P42336 whole entry): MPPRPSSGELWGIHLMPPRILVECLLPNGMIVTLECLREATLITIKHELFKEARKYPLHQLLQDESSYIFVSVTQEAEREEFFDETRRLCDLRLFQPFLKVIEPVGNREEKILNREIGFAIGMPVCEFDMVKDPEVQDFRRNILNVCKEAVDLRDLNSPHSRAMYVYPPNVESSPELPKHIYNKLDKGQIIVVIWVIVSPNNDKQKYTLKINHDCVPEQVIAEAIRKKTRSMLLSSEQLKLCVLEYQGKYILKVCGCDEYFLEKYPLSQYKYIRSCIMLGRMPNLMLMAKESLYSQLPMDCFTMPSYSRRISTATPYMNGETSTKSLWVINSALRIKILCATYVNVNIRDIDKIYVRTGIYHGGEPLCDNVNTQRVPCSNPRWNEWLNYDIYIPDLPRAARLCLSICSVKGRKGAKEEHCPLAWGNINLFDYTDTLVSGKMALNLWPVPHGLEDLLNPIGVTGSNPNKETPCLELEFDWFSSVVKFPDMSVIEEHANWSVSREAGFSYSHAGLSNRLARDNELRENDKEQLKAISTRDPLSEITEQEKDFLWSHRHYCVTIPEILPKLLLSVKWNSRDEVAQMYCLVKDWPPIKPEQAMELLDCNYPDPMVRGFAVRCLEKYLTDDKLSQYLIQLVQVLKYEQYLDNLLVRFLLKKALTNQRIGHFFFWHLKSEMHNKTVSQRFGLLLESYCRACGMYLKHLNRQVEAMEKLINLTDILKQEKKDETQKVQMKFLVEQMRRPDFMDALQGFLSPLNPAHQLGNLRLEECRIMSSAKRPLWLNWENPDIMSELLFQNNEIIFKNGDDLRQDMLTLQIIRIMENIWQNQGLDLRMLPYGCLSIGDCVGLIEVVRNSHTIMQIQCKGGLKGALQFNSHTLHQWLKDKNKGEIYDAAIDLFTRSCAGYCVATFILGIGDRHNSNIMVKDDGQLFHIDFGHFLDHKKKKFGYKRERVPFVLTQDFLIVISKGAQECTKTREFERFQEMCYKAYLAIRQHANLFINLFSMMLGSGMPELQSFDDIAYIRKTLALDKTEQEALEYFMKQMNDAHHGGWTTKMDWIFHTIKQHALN
T2 sequence (P27986 whole entry partner): as the sequence (P27986 whole entry partner) above
In words: In vitro IC50, PI3K α.
Text: as §1

The target of a further assay is PI3K β (Homo sapiens, UniProt P42338). The assay can be described thus: In vitro IC50, PI3K β.
PI3K β, sequence (P42338 whole entry): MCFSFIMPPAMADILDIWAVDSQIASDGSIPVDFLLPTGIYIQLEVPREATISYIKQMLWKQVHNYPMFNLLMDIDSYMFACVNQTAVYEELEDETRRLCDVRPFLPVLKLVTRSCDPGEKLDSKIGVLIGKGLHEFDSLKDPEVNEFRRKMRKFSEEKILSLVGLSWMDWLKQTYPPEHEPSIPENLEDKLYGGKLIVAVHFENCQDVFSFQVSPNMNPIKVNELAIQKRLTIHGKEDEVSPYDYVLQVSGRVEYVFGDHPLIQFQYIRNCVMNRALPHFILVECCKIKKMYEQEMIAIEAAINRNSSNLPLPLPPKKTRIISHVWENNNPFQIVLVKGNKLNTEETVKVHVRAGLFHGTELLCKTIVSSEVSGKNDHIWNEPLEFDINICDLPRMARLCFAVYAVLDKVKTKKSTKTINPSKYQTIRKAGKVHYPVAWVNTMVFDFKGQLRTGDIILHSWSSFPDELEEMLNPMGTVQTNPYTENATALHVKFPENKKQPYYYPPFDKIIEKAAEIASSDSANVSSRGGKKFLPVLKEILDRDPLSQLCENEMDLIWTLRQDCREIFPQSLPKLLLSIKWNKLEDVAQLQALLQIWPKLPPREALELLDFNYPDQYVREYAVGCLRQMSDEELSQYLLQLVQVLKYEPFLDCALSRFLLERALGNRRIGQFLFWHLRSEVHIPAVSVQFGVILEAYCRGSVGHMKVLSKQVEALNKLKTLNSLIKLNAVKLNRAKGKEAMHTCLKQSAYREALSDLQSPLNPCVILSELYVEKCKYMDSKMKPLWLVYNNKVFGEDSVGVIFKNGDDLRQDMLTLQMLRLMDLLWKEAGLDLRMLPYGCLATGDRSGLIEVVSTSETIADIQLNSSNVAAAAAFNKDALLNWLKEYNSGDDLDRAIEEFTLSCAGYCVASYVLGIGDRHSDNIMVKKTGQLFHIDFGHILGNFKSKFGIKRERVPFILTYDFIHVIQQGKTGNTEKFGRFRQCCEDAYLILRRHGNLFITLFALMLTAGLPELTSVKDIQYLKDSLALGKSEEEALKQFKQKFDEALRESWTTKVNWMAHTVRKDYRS
Text: as §1

T1 sequence (P48736 whole entry): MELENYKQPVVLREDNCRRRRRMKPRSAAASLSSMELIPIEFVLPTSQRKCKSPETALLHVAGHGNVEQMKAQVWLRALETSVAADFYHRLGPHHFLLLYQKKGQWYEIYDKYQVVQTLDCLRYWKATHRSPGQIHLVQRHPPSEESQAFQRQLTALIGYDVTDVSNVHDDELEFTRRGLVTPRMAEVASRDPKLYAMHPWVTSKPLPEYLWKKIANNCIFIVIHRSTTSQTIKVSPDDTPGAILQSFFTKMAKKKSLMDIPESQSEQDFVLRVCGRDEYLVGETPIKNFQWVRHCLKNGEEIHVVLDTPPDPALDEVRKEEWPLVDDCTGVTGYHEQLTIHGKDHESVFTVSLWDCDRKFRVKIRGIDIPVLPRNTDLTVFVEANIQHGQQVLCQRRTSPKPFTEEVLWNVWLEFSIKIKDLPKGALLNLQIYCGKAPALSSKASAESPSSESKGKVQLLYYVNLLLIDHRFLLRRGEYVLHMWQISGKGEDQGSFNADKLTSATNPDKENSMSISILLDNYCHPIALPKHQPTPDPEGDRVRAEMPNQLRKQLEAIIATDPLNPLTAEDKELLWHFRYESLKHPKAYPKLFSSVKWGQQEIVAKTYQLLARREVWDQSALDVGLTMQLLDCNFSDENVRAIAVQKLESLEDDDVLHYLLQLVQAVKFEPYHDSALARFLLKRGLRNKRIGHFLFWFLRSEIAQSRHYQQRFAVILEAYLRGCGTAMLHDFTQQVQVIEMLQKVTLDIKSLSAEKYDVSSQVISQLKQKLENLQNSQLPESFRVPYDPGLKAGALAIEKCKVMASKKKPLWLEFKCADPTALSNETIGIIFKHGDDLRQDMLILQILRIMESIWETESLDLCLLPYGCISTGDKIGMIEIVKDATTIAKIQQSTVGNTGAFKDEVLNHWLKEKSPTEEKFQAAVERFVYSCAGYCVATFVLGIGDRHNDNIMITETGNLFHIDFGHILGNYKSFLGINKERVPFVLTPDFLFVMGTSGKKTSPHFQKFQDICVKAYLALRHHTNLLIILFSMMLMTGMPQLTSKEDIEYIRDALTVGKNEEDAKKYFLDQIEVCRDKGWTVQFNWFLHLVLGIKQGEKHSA

With `Nc1ncnc2c1c(-c1cn[nH]c1)nn2Cc1cc2cccc(F)c2c(=O)n1-c1ccccc1F` [Compound 189], the IC50 on PI3K γ was less than 10 µM; at PI3K δ it was less than 1 µM; against PI3K α, more than 10 µM; against PI3K β, more than 10 µM.
In the case of `CCC(Nc1ncnc2[nH]cnc12)c1cc2cccc(C)c2c(=O)n1C1CCC1` (stereo not shown) [Compound 212], the IC50 on PI3K γ was less than 1 µM; against PI3K δ, less than 0.1 µM; against PI3K α it was more than 10 µM; at PI3K β, less than 10 µM.
Taken in the same sequence, the figures for `Cc1cccc2cc(Cn3nc(-c4cccc(F)c4)c4c(N)ncnc43)n(-c3ccccc3F)c(=O)c12` [Compound 40] were less than 10 µM, less than 10 µM, more than 10 µM and more than 10 µM.
Taken in the same sequence, the figures for `COc1ccccc1-n1c(Cn2nc(-c3cccc(O)c3)c3c(N)ncnc32)cc2cccc(C)c2c1=O` [Compound 74] were less than 0.1 µM, less than 0.1 µM, more than 10 µM and less than 10 µM.
Turning to `COc1cc(F)cc(-c2nn(Cc3cc4cccc(C)c4c(=O)n3-c3ccccc3C)c3ncnc(N)c23)c1` [Compound 181], the IC50 is less than 10 µM on PI3K γ, less than 1 µM at PI3K δ, more than 10 µM on PI3K α and more than 10 µM against PI3K β.
`Cc1cccc2cc([C@H](C)Nc3ncnc4[nH]c(Cl)nc34)n(C3CC3)c(=O)c12` [Compound 280]: the IC50 against PI3K γ, at PI3K δ, at PI3K α and on PI3K β was more than 10 µM in each case.
Take `Cc1cccc2cc(Cn3nc(-c4cn[nH]c4)c4c(N)ncnc43)n(-c3ccccc3)c(=O)c12` [Compound 206]: the IC50 on PI3K γ was less than 1 µM; against PI3K δ, less than 0.1 µM; against PI3K α it was less than 10 µM; on PI3K β, less than 10 µM.
`COc1cccc(-c2nn(Cc3cc4cccc(C)c4c(=O)n3-c3ccccc3C)c3ncnc(N)c23)c1` [Compound 106]: the concentration for half-maximal inhibition (IC50) against PI3K γ was less than 1 µM; at PI3K δ, less than 1 µM; on PI3K α, more than 10 µM; at PI3K β, less than 10 µM.
With `C[C@H](Nc1ncnc2[nH]cnc12)c1cc2cccc(Cl)c2c(=O)n1C1CC1` [Compound 270], the IC50 at PI3K γ was less than 0.1 µM; against PI3K δ it was less than 0.1 µM; against PI3K α it was less than 1 µM; at PI3K β it was less than 0.1 µM.
For the compound `Cc1ccccc1-n1c(Cn2nc(-c3cccc(O)c3)c3c(N)ncnc32)cc2cccc(F)c2c1=O` [Compound 59], the IC50 at PI3K γ was less than 0.1 µM; at PI3K δ, less than 0.1 µM; on PI3K α, more than 10 µM; on PI3K β, more than 10 µM.
Turning to `Cc1cccc2cc([C@H](C)Nc3ncnc4[nH]ccc34)n(-c3ccccc3)c(=O)c12` [Compound 247], the IC50 at PI3K γ was less than 0.1 µM; at PI3K δ, less than 0.1 µM; on PI3K α, more than 10 µM; on PI3K β it was less than 10 µM.
For the compound `Cc1cccc2cc(Cn3nc(-c4ccc(O)c(Cl)c4)c4c(N)ncnc43)n(-c3ccccc3F)c(=O)c12` [Compound 26], the IC50 was less than 0.1 µM against PI3K γ, less than 1 µM against PI3K δ, more than 10 µM against PI3K α and more than 10 µM on PI3K β.
On to `Cc1cccc2cc(Cn3nc(I)c4c(N)ncnc43)n(C)c(=O)c12` [Compound 107], for which the IC50 against PI3K γ is less than 10 µM; against PI3K δ, less than 1 µM; on PI3K α, more than 10 µM; at PI3K β, more than 10 µM.
On to `Cc1cccc2cc(Cn3nc(-c4cccc(O)c4)c4c(N)ncnc43)n(C3CCCC3)c(=O)c12` [Compound 58], for which the IC50 is less than 1 µM against PI3K γ, less than 0.1 µM on PI3K δ, more than 10 µM at PI3K α and less than 10 µM at PI3K β.
`Cc1cccc2cc(Cn3nc(-c4cccc(O)c4)c4c(N)ncnc43)n(-c3ccccc3)c(=O)c12` [Compound 146]: the IC50 is less than 0.1 µM at PI3K γ, less than 0.1 µM on PI3K δ, more than 10 µM against PI3K α and more than 10 µM at PI3K β.
For `Cc1cccc2cc(C(C)Nc3ncnc4[nH]cnc34)n(-c3ccc(F)cc3)c(=O)c12` (stereo not shown) [Compound 213], the IC50 against PI3K γ is less than 0.1 µM; at PI3K δ, less than 0.1 µM; at PI3K α it was less than 10 µM; on PI3K β it was less than 1 µM.
Take `Cc1cccc2cc(Cn3nc(-c4cc(O)cc(F)c4)c4c(N)ncnc43)n(-c3ccccc3F)c(=O)c12` [Compound 3]: the IC50 against PI3K γ is less than 0.1 µM; on PI3K δ, less than 0.1 µM; against PI3K α, less than 10 µM; at PI3K β, less than 10 µM.
For the compound `CCn1c(Cn2nc(-c3ccc4nc(NC(C)=O)sc4c3)c3c(N)ncnc32)cc2cccc(C)c2c1=O` [Compound 176], the IC50 was less than 0.1 µM against PI3K γ, less than 0.1 µM at PI3K δ, less than 0.1 µM at PI3K α and less than 1 µM against PI3K β.
On to `Cc1ccccc1-n1c(Cn2nc(-c3ccc4oc(N)nc4c3)c3c(N)ncnc32)cc2cccc(C)c2c1=O` [Compound 151], for which the IC50 was less than 0.1 µM on PI3K γ, less than 0.1 µM against PI3K δ, less than 1 µM at PI3K α and less than 10 µM against PI3K β.
As to `Cc1ccccc1-n1c(Cn2nc(-c3cn[nH]c3)c3c(N)ncnc32)cc2cccc(C)c2c1=O` [Compound 160], the concentration for half-maximal inhibition (IC50) against PI3K γ is less than 0.1 µM; against PI3K δ, less than 0.1 µM; against PI3K α, more than 10 µM; against PI3K β, less than 10 µM.
As for `C=C(C)c1nn(Cc2cc3cccc(C)c3c(=O)n2-c2ccccc2)c2ncnc(N)c12` [Compound 316], the 50% inhibitory concentration (IC50) against PI3K γ was less than 1 µM; against PI3K δ it was less than 0.1 µM; against PI3K α, more than 10 µM; against PI3K β, less than 10 µM.
Taken in the same sequence, the figures for `Cc1cccc2cc(C(C)Nc3ncnc4[nH]cnc34)n(C3CC3)c(=O)c12` (stereo not shown) [Compound 204] were less than 0.1 µM, less than 0.1 µM, less than 10 µM and less than 1 µM.
Taken in the same sequence, the figures for `Cc1ccccc1-n1c(Cn2nc(C#C[C@@H](C)O)c3c(N)ncnc32)cc2cccc(F)c2c1=O` [Compound 43] were more than 10 µM, less than 1 µM, more than 10 µM and more than 10 µM.
In the case of `Cc1cccc2cc(Cn3nc(I)c4c(N)ncnc43)n(C3CCCC3)c(=O)c12` [Compound 57], the IC50 at PI3K γ was less than 10 µM; against PI3K δ it was less than 1 µM; on PI3K α, more than 10 µM; against PI3K β, more than 10 µM.
Turning to `Cc1cccnc1-n1c(Cn2nc(-c3ccc(F)c(O)c3)c3c(N)ncnc32)cc2cccc(C)c2c1=O` [Compound 68], the IC50 was less than 0.1 µM against PI3K γ, less than 0.1 µM at PI3K δ, more than 10 µM against PI3K α and more than 10 µM against PI3K β.
As to `Cc1cccc(C)c1-n1c(CNc2ncnc3[nH]cnc23)cc2cccc(C)c2c1=O` [Compound 218], the IC50 against PI3K γ was less than 1 µM; against PI3K δ, less than 0.1 µM; against PI3K α, more than 10 µM; at PI3K β it was more than 10 µM.
As for `Cc1cccc2cc(Cn3nc(-c4cccc(O)c4)c4c(N)ncnc43)n(C3CC3)c(=O)c12` [Compound 102], the IC50 at PI3K γ is less than 0.1 µM; on PI3K δ, less than 0.1 µM; against PI3K α, less than 1 µM; against PI3K β, less than 1 µM.
As to `Cc1cccc2cc([C@H](C)Nc3cc(N)nc(Cl)n3)n(-c3ccccc3)c(=O)c12` [Compound 285], the IC50 at PI3K γ was less than 10 µM; against PI3K δ, less than 1 µM; against PI3K α, more than 10 µM; against PI3K β, more than 10 µM.
As for `Cc1cccc2cc(Cn3nc(-c4cn[nH]c4)c4c(N)ncnc43)n(-c3ccccc3F)c(=O)c12` [Compound 161], the IC50 was less than 1 µM on PI3K γ, less than 0.1 µM against PI3K δ, more than 10 µM on PI3K α and less than 10 µM on PI3K β.
Taken in the same sequence, the figures for `Cc1cccc2cc(Cn3nc(I)c4c(N)ncnc43)n(-c3ccccc3OCCN3CCOCC3)c(=O)c12` [Compound 103] were less than 1 µM, less than 0.1 µM, more than 10 µM and more than 10 µM.
The like results for `Cc1ccccc1-n1c(Cn2nc(-c3cc(O)cc(F)c3)c3c(N)ncnc32)cc2cccc(F)c2c1=O` [Compound 55] were, in that order, less than 1 µM, less than 0.1 µM, more than 10 µM and less than 10 µM.
The like results for `Cc1cccc2cc(C(C)Nc3ncnc4[nH]cnc34)n(C3CCN(C)CC3)c(=O)c12` (stereo not shown) [Compound 227] were, in that order, more than 10 µM, less than 0.1 µM, more than 10 µM and less than 1 µM.
As for `Cc1ccccc1-n1c(Cn2nc(-c3ccc(F)c(O)c3)c3c(N)ncnc32)cc2cccc(F)c2c1=O` [Compound 56], the IC50 is less than 0.1 µM on PI3K γ, less than 0.1 µM on PI3K δ, more than 10 µM against PI3K α and more than 10 µM on PI3K β.
For `Cc1cccc2cc([C@H](C)Nc3ncnc4[nH]nc(C(N)=O)c34)n(-c3ccccc3)c(=O)c12` [Compound 256], the IC50 is less than 0.1 µM against PI3K γ, less than 0.1 µM against PI3K δ, less than 10 µM on PI3K α and less than 0.1 µM at PI3K β.
On to `Cc1ccccc1-n1c(Cn2nc(-c3ccc4nc(N)oc4c3)c3c(N)ncnc32)cc2cccc(C)c2c1=O` [Compound 243], for which the IC50 is less than 0.1 µM at PI3K γ, less than 0.1 µM at PI3K δ, less than 10 µM against PI3K α and less than 10 µM against PI3K β.
With `Cc1ccccc1-n1c(Cn2nc(-c3cnn(C)c3)c3c(N)ncnc32)cc2cccc(C)c2c1=O` [Compound 165], the IC50 against PI3K γ is less than 1 µM; on PI3K δ, less than 10 µM; on PI3K α, more than 10 µM; on PI3K β, more than 10 µM.
As to `Cc1cccc2cc([C@H](C)Nc3ncnc4[nH]nc(Cl)c34)n(C3CC3)c(=O)c12` [Compound 293], the IC50 against PI3K γ was less than 1 µM; on PI3K δ it was less than 0.1 µM; on PI3K α it was more than 10 µM; against PI3K β, less than 1 µM.
